# Source: US4772606A, “Purine derivatives” (Warner-Lambert Company, priority 1985, dated 1988)
# Where a name gives a salt, the structure may show the parent alone. Read-outs that look alike come from different tables or passages of the source.
# Key:
# T-Cell = assay: HTBA-1 T-cell cytotoxicity in the presence of 2'-deoxyguanosine; assay type: cell-based; conditions: read-out: HTBA-1 T-Cell +dGuo (10 μM) IC50
# [1] = biological target: T1, purine nucleoside phosphorylase (PNP-4) (Homo sapiens, UniProt P00491); assay: purine nucleoside phosphorylase (PNP-4) enzyme assay, radiochemical, formation of [14C]-hypoxanthine from [14C]inosine; assay type: biochemical; conditions: erythrocyte enzyme; [14C]inosine substrate
# T1 construct: using hyman erythrocyte as the enzyme source; from tissue; host or cells: human erythrocytes
# T1 sequence (P00491 1-289): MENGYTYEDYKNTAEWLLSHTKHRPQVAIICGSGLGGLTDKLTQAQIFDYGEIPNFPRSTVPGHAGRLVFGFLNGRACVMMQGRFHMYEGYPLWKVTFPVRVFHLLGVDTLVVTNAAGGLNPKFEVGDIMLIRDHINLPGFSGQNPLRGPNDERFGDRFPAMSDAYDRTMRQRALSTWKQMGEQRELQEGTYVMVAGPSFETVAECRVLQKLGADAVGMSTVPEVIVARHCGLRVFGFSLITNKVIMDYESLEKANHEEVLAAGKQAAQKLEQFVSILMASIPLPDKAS
Compound,IC50 (T-Cell) [µM],IC50 [1] [µM],IC50 (T-Cell; +dGuo (10 μM)) [µM]
Nc1nc2c(nc(N)n2Cc2cccs2)c(=O)[nH]1 [2 or 9a],0.83,0.17,–
"Nc1nc2c(ncn2Cc2cccnc2)c(=O)[nH]1 [Example 1, 9-[(3-Pyridinyl)methyl]guanine]",–,21.9,54.1
"CCc1ccc(Cn2cnc3c(=O)[nH]c(N)nc32)s1 [Example 3, 9-[(5-Ethyl-2-thienyl)methyl]guanine]",–,0.93,4.15
"Nc1nc2c(nc(N)n2Cc2ccco2)c(=O)[nH]1 [Example 9b, 8-Amino-9-(2-furanylmethyl)guanine monohydrochloride]",2.57,0.25,–
"Nc1nc2c(nc(N)n2Cc2ccsc2)c(=O)[nH]1 [Example 9c, 8-Amino-9-[(3-thienyl)methyl]guanine, monohydrochloride, monohydrate]",–,0.085,0.49
"Cc1ccsc1Cn1c(N)nc2c(=O)[nH]c(N)nc21 [Example 9d, 8-Amino-9-[(3-methyl-2-thienyl)methyl]guanine]",–,4.05,8.6
"Nc1nc2c(nc(N)n2Cc2csc3ccccc23)c(=O)[nH]1 [Example 9e, 8-Amino-9-[(benzo[b]thien-3-yl)methyl]guanine]",–,140,–
Nc1nc2c(nc(N)n2CCc2cccs2)c(=O)[nH]1 [Example 16Ac],–,6.25,17.6
Cc1sccc1Cn1c(N)nc2c(=O)[nH]c(N)nc21 [Example 16Ad],–,1.72,18.2
Nc1nc2c(nc(N)n2Cc2ccccn2)c(=O)[nH]1 [Example 16Af],–,4.6,–
Nc1nc2c(nc(N)n2Cc2cc3ccccc3s2)c(=O)[nH]1 [Example 16Ag],–,8.45,> 12.5
Cc1cc(Cn2c(N)nc3c(=O)[nH]c(N)nc32)cs1 [Example 16Ak],–,0.63,2.8
